From patent US11542262B2, “Phosphatidylinositol 3-kinase inhibitors” (NANJING ZHENGXIANG PHARMACEUTICALS CO., LTD., priority 2019, dated 2023)
In brackets after ≈: the same amount, converted by molar mass.

Experiments:
PI3Kγ = PI3Kγ (Homo sapiens, UniProt P48736); assay: ADP-Glo luminescent assay, enzymatic activity of PI3K gamma; assay type: biochemical; conditions: ATP 25 μM; read-out: PI3K gamma (nM) inhibitory activity (IC50)
Procedure: The compounds would be tested from 1 or 10 μM, 3-fold dilution for 10 doses, in duplicate.
(§1) Compound preparation: Dilute a compound to 100× of the final desired highest inhibitor concentration in reaction by 100% DMSO. Transfer 100 μl of this compound dilution to a well in a 96-well plate and serially dilute it with DMSO for a total of 10 concentrations.
Kinase reaction: Prepare a solution of PI3K in 1× kinase buffer at 2-fold the final concentration of each reagent in the assay. Control wells contain 1× kinase buffer without enzyme. Prepare substrate solution of PIP2 substrate and ATP in 1× kinase reaction buffer at 2-fold of the final concentration. Add concentration substrate solution to each well to the final concentration. Cover the assay plate, shake to mix, and incubate at room temperature for 1 hour. Add 5 μl of ADP-Glo reagent to each well to stop the reaction. […] Add 10 ul Kinase Detection Reagent to each well, shake 1 min, equilibrate for 30 min before reading on a luminescence plate reader.
(§2) Data Analysis: Convert RLU values to percent inhibition values as Percent inhibition=(max−sample RLU)/(max−min)*100. “min”—no enzyme control; “max”—DMSO control. Fit the data in XLFit excel add-in version 5.4.0.8 to obtain IC50 values. Y=Bottom+(Top−Bottom)/(1+(IC50/X)^HillSlope).

PI3Kδ = PI3Kδ (Homo sapiens, UniProt O00329); assay: ADP-Glo luminescent assay, enzymatic activity of PI3K delta; assay type: biochemical; conditions: ATP 25 μM; read-out: PI3K delta (nM) inhibitory activity (IC50)
Procedure: Enzymatic activity of PI3K isoforms: Enzymatic activity of the class I PI3K isoforms in the presence of the compounds of Table 1 was measured using ADP-Glo luminescent assay against PI3Kα, PI3Kβ, PI3Kδ and PI3Kγ with ATP concentration at 25 μM. […] The compounds would be tested from 1 or 10 μM, 3-fold dilution for 10 doses, in duplicate.
as §1
Kinase reaction: Prepare a solution of PI3K in 1× kinase buffer at 2-fold the final concentration of each reagent in the assay. Control wells contain 1× kinase buffer without enzyme. Prepare substrate solution of PIP2 substrate and ATP in 1× kinase reaction buffer at 2-fold of the final concentration. Add concentration substrate solution to each well to the final concentration. Cover the assay plate, shake to mix, and incubate at room temperature for 1 hour. Add 5 μl of ADP-Glo reagent to each well to stop the reaction. Mix briefly with a quick spin, shake slowly on the shaker for 120 min. Add 10 ul Kinase Detection Reagent to each well, shake 1 min, equilibrate for 30 min before reading on a luminescence plate reader.
as §2

PI3K gamma = biological target: T1, PI3K gamma (Mus musculus, UniProt Q9JHG7); assay: Raw264.7 cell assay: phosphorylation of AKT in C5a stimulated RAW264.7 cells (AlphaLISA); assay type: cell-based; conditions: pAKT, read-out: PI3K gamma Raw264.7 cell (nM) cellular activity (IC50)
T1 construct: endogenous in cells; host or cells: RAW264.7
Procedure: This study aims to determine the inhibitory effect of compounds on PI3K gamma and PI3K delta in corresponding cell based assays. PI3K gamma activity was reflected by phosphorylation of AKT in C5a stimulated RAW264.7 cells, and PI3K delta activity was reflected by phosphorylation of AKT in anti-IgM stimulated Raji cells. Phosphorylation of AKT in cells was determined using AlphaLISA technology from PerkinElmer.
Raw264.7 cell assay: Prepare Passage 15 Raw264.7 cell and add 6 μL of 30K cells per well in 384-well plate by multidrop. Centrifuge at 500 RPM for 30 s and incubate for 2 hours at 37° C., 5% CO2. Add 30 nL compound by echo and incubate for 30 min at 37° C., 5% CO2. […] Add 2 μL of 5× lysis buffer by multidrop, incubate for 10 min on a plate shaker. Add 5 μL acceptor mix provided in the kit, centrifuge at 1000 RPM for 1 min. Add 5 μL donor mix provided in the kit, centrifuge at 1000 RPM for 1 min and incubate in dark for 2 hours at 25° C. Read AlphaLISA signal on Envision.
Y=Bottom+(Top−Bottom)/(1+10^((Log IC50−X)*Hill Slope)) X: Log of cpd concentration Y: Inhibition

[1] = Kinetic solubility test in PBS pH7.4; assay type: physicochemical; conditions: aqueous buffer, kinetic from dmso stock; PBS pH 7.4, 25° C., 2 hours
Procedure: 15 μL of stock solution (10 mM) was placed in order into their proper 96-well rack. 485 μL of PBS pH7.4 was added into each vial of the cap-less Solubility Sample plate. The assay was performed in singlet. Add one stir stick to each vial and seal using a molded PTFE/Silicone plug. […] After completion of the 2 hours, the samples from the Solubility Sample plate were transferred into the filter plate. all the samples were filtered using the Vacuum Manifold. Aliquot of 5 μL was taken from the filtrate followed by addition of 495 μL of a mixture of H2O and acetonitrile containing internal standard (1:1). A certain proportion of ultrapure water was used to dilute the diluent according to the peak shape. The dilution factor was changed according to the solubility values and the LC-MS signal response.
Preparation of 3 μM standards (STD): From the 10 mM DMSO STD plate, 6 μL was transferred into the remaining empty plate, and then 194 μL of DMSO was added to that plate to have a STD concentration of 300 μM. From the 300 μM DMSO STD plate, 5 μL was transferred into the remaining empty plate, and then 495 μL of a mixture of H2O and acetonitrile containing internal standard (1:1) was added to that plate to have a final STD concentration of 3 μM. A certain proportion of ultrapure water was used to dilute the diluent according to the peak shape. The concentrations of the standard samples were changed according to the LC-MS signal response.
Procedure for sample analysis: The plate was placed into the well plate autosampler. The samples were evaluated by LC-MS/MS analysis.
Data analysis: All calculations were carried out using Microsoft Excel.
The filtrate was analyzed and quantified against a standard of known concentration using LC coupled with mass spectral peak identification and quantitation. Solubility values of the test compound and control compound were calculated as follows:
[formula] • Any value of the compounds that was not within the specified limits was rejected and the experiment was repeated.

T1 sequence (Q9JHG7 whole entry): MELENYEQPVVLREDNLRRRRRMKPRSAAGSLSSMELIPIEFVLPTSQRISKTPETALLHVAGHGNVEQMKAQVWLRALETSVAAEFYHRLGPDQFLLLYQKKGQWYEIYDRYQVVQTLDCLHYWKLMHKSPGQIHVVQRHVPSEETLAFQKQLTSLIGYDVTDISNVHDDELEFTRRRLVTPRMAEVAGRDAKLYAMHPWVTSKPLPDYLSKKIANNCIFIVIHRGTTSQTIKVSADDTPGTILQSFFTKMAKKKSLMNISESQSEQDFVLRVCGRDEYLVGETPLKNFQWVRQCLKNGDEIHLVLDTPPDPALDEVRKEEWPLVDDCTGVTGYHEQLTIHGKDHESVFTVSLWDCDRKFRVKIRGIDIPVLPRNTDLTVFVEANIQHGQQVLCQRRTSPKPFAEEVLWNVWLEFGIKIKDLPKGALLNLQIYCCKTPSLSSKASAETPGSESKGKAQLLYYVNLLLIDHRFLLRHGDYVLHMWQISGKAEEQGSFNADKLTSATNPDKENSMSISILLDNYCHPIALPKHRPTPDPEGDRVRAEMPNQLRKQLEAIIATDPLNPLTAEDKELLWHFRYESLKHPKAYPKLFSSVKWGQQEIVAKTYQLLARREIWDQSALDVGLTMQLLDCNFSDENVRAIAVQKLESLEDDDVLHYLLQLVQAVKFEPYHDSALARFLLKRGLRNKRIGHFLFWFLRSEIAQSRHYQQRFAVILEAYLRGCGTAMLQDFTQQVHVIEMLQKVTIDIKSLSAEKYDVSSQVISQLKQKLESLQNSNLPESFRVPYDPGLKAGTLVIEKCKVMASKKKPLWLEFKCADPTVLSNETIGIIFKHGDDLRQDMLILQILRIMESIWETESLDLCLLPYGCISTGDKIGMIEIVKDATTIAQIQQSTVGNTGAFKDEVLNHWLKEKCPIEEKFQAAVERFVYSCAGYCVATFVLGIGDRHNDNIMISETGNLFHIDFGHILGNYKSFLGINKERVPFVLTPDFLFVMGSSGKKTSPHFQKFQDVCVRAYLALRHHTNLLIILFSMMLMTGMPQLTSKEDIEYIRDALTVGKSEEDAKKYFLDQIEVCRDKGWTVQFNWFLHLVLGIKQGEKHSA
T1 sequence (Q5SW28 whole entry partner): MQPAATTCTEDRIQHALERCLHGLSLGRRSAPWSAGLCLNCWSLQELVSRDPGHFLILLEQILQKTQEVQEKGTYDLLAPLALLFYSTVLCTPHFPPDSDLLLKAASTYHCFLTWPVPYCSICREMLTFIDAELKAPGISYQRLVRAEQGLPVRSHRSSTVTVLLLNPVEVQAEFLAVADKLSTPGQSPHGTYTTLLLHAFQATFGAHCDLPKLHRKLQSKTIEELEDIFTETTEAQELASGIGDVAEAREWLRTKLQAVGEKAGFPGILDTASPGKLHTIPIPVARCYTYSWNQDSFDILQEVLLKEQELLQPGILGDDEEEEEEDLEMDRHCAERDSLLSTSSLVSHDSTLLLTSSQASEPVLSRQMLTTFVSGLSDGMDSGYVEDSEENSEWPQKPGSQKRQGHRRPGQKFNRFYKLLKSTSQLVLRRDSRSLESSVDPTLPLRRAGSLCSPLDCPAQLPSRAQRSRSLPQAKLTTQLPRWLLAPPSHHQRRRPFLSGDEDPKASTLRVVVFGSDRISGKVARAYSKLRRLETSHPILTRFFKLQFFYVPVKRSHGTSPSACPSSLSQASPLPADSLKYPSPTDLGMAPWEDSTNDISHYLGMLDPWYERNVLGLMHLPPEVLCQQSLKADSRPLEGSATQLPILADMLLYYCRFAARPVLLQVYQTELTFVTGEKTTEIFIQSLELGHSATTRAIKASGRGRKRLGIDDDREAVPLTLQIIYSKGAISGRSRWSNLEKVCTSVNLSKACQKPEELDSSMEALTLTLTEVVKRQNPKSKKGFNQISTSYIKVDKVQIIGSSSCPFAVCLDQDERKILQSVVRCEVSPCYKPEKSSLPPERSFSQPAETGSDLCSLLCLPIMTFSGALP
PI3Kδ, sequence (O00329 whole entry, species assumed, canonical isoform): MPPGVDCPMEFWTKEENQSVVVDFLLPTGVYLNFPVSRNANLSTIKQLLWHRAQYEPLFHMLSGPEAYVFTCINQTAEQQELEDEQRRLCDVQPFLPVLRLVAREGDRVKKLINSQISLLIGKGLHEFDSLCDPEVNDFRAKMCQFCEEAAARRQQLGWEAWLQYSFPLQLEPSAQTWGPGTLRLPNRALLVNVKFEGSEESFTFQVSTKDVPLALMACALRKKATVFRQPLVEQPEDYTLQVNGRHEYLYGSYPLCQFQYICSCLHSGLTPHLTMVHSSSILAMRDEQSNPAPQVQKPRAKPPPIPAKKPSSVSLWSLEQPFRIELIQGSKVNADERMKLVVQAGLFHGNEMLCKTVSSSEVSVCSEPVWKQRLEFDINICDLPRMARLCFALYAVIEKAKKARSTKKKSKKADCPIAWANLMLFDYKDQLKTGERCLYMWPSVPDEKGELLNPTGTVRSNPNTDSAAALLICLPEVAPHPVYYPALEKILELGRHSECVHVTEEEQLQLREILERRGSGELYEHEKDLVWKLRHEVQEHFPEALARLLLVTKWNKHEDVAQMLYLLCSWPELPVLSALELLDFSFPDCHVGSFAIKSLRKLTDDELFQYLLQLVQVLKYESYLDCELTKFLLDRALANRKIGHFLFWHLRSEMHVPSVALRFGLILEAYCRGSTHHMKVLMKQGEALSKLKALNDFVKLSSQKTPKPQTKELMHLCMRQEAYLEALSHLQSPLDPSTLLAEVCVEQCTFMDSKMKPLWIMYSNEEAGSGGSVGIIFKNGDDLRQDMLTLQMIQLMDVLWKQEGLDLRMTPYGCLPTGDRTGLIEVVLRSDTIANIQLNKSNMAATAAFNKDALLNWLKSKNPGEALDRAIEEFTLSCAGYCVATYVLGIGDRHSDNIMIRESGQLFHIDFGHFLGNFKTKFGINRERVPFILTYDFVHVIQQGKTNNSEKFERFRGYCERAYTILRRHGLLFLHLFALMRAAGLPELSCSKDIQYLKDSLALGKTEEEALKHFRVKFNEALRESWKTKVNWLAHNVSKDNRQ
PI3Kδ, sequence (P27986 whole entry partner, species assumed, canonical isoform): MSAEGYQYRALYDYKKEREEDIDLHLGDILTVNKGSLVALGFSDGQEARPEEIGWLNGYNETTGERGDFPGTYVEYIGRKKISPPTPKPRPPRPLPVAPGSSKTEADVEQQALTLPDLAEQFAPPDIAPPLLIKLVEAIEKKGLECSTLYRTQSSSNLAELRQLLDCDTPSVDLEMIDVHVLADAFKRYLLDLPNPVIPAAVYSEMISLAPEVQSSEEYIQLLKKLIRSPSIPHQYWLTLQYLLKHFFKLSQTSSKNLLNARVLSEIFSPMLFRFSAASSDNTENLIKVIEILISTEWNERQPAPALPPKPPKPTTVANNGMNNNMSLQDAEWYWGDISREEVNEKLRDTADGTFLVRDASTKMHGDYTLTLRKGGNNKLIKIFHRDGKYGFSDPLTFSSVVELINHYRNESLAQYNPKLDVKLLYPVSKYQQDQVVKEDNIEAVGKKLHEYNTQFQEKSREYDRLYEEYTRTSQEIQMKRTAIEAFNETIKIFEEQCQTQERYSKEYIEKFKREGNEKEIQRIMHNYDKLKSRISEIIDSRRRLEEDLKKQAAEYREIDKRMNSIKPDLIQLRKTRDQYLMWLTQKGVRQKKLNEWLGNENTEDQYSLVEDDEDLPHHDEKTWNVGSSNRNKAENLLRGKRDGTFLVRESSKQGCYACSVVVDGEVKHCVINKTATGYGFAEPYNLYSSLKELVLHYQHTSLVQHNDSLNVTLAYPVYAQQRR
PI3Kγ, sequence (P48736 whole entry, species assumed): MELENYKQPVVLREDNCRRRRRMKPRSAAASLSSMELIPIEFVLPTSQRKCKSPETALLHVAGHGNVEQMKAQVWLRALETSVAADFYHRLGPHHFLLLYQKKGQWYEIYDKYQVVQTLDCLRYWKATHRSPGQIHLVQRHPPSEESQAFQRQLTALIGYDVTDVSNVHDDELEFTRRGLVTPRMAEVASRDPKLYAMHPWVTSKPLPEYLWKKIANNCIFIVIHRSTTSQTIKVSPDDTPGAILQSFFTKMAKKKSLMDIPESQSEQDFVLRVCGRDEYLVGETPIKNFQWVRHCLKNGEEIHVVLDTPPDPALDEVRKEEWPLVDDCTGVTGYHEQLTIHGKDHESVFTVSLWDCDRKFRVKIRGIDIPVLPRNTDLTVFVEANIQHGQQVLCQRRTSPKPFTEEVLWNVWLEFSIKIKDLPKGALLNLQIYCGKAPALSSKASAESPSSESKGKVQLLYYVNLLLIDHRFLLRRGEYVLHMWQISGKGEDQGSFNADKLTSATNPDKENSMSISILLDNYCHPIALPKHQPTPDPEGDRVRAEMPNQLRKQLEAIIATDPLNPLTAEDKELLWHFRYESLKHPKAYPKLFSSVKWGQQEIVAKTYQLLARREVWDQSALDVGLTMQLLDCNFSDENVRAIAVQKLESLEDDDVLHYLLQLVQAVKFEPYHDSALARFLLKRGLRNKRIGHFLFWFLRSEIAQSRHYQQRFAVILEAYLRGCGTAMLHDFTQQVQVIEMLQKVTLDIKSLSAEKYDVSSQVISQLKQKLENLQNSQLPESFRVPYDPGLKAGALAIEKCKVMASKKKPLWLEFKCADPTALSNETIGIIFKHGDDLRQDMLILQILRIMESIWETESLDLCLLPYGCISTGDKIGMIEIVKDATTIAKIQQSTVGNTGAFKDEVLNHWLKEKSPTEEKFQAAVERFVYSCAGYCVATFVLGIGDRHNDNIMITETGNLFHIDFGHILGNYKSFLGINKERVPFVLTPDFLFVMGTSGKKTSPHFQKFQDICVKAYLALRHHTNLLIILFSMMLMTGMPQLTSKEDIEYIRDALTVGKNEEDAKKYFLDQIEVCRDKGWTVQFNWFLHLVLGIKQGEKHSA

Structure (SMILES) | IC50 (PI3Kγ) | IC50 (PI3Kδ) | IC50 (PI3K gamma) | solubility at 2 h [1]
CCC(=O)Nc1nc(C)c(-c2cc3c(c(P(C)(C)=O)c2)C(=O)N([C@@H](C)C2CC2)C3)s1 [Compound 2, (S)-N-(5-(2-(1-cyclopropylethyl)-7-(dimethylphosphoryl)-1-oxoisoindolin-5-yl)-4-methylthiazol-2-yl)propionamide] | 3.7 nM | > 1000 nM |  | 
CC(=O)Nc1nc(C)c(-c2cnc3c(c2)CN([C@@H](C)C2CC2)C3=O)s1 [Compound 8, (S)-N-(5-(6-(1-cyclopropylethyl)-7-oxo-6,7-dihydro-5H-pyrrolo[3,4-b]pyridin-3-yl)-4-methylthiazol-2-yl)acetamide] | 34 nM | 361 nM | 115 nM | 
CC(=O)Nc1nc(C)c(-c2ccc3c(c2)CN([C@@H](C)C2CC2)C3=O)s1 [Compound 10, (S)-N-(5-(2-(1-cyclopropylethyl)-1-oxoisoindolin-5-yl)-4-methylthiazol-2-yl)acetamide] | 2.5 nM | 359 nM | 290 nM | 
CC(=O)Nc1nc(C)c(-c2cc3c(c(S(C)(=O)=O)n2)C(=O)N([C@@H](C)C2CC2)C3)s1 [Compound 19, (S)-N-(5-(2-(1-cyclopropylethyl)-4-(methylsulfonyl)-3-oxo-2,3-dihydro-1H-pyrrolo[3,4-c]pyridin-6-yl)-4-methylthiazol-2-yl)acetamide] | 1.6 nM | > 1000 nM | 28 nM | 
CC(=O)Nc1nc(C)c(-c2cc3c(c(NC(=O)C4CC4)n2)C(=O)N([C@@H](C)C2CC2)C3)s1 [Compound 26, (S)-N-(6-(2-acetamido-4-methylthiazol-5-yl)-2-(1-cyclopropylethyl)-3-oxo-2,3-dihydro-M-pyrrolo[3,4-c]pyridin-4-yl)cyclopropanecarboxamide] | 1.4 nM | > 1000 nM |  | 
CC(=O)Nc1nc(C)c(-c2cc3c(c(N4CCN(C(C)=O)CC4)n2)C(=O)N([C@@H](C)C2CC2)C3)s1 [Compound 40, (S)-N-(5-(4-(4-acetylpiperazin-1-yl)-2-(1-cyclopropylethyl)-3-oxo-2,3-dihydro-1H-pyrrolo[3,4-c]pyridin-6-yl)-4-methylthiazol-2-yl)acetamide] | 2 nM |  | 6.3 nM | 25 µM (≈ 12.1 µg/mL)
CC(=O)Nc1ncc(-c2cc3c(c(N4CCOCC4)n2)C(=O)N([C@@H](C)C2CC2)C3)s1 [Compound 41, (S)-N-(5-(2-(1-cyclopropylethyl)-4-morpholino-3-oxo-2,3-dihydro-1H-pyrrolo[3,4-c]pyridin-6-yl)thiazol-2-yl)acetamide] | 2.3 nM |  |  | 3.5 µM (≈ 1.5 µg/mL)
COCCOc1nc(-c2sc(NC(C)=O)nc2C)cc2c1C(=O)N([C@@H](C)C1CC1)C2 [Compound 42, (S)-N-(5-(2-(1-cyclopropylethyl)-4-(2-methoxyethoxy)-3-oxo-2,3-dihydro-1H-pyrrolo[3,4-c]pyridin-6-yl)-4-methylthiazol-2-yl)acetamide] | 1.8 nM |  |  | 2.6 µM (≈ 1.12 µg/mL)
CC(=O)Nc1nc(C)c(-c2cc3c(c(N4CCC(O)CC4)n2)C(=O)N([C@@H](C)C2CC2)C3)s1 [Compound 46, (S)-N-(5-(2-(1-cyclopropylethyl)-4-(4-hydroxypiperidin-1-yl)-3-oxo-2,3-dihydro-1H-pyrrolo[3,4-c]pyridin-6-yl)-4-methylthiazol-2-yl)acetamide] | 0.7 nM |  | 3.8 nM | 6.1 µM (≈ 2.78 µg/mL)
CC(=O)Nc1nc(C)c(-c2cc3c(c(N4CC(O)C4)n2)C(=O)N([C@@H](C)C2CC2)C3)s1 [Compound 48, (S)-N-(5-(2-(1-cyclopropylethyl)-4-(3-hydroxyazetidin-1-yl)-3-oxo-2,3-dihydro-1H-pyrrolo[3,4-c]pyridin-6-yl)-4-methylthiazol-2-yl)acetamide] | 0.84 nM |  | 14 nM | 
CC(=O)Nc1nc(C)c(-c2cc3c(c(N4CC(S(C)(=O)=O)C4)n2)C(=O)N([C@@H](C)C2CC2)C3)s1 [Compound 49, (S)-N-(5-(2-(1-cyclopropylethyl)-4-(3-(methylsulfonyl)azetidin-1-yl)-3-oxo-2,3-dihydro-1H-pyrrolo[3,4-c]pyridin-6-yl)-4-methylthiazol-2-yl)acetamide] | 1 nM |  | 38 nM | 
CC(=O)Nc1nc(C)c(-c2cc3c(c(OCCO)n2)C(=O)N([C@@H](C)C2CC2)C3)s1 [Compound 50, (S)-N-(5-(2-(1-cyclopropylethyl)-4-(2-hydroxyethoxy)-3-oxo-2,3-dihydro-1H-pyrrolo[3,4-c]pyridin-6-yl)-4-methylthiazol-2-yl)acetamide] | 1 nM |  | 20 nM | 
CC(=O)Nc1nc(C)c(-c2cc3c(c(OC4COC4)n2)C(=O)N([C@@H](C)C2CC2)C3)s1 [Compound 52, (S)-N-(5-(2-(1-cyclopropylethyl)-4-(oxetan-3-yloxy)-3-oxo-2,3-dihydro-1H-pyrrolo[3,4-c]pyridin-6-yl)-4-methylthiazol-2-yl)acetamide] | 1.1 nM |  | 12 nM | 
CC(=O)Nc1nc(C)c(-c2cc3c(c(CN4CCOCC4)n2)C(=O)N([C@@H](C)C2CC2)C3)s1 [Compound 54, (S)-N-(5-(2-(1-cyclopropylethyl)-4-(morpholinomethyl)-3-oxo-2,3-dihydro-1H-pyrrolo[3,4-c]pyridin-6-yl)-4-methylthiazol-2-yl)acetamide] | 4.6 nM |  | 17 nM | 
CC(=O)Nc1nc(C)c(-c2cc3c(c(C(C)N4CCOCC4)n2)C(=O)N([C@@H](C)C2CC2)C3)s1 (stereo partly drawn) [Compound 55, N-(5-(2-((S)-1-cyclopropylethyl)-4-(1-morpholinoethyl)-3-oxo-2,3-dihydro-1H-pyrrolo[3,4-c]pyridin-6-yl)-4-methylthiazol-2-yl)acetamide] | 1.7 nM |  | 18 nM | 
C[C@H](NC(=O)c1c(N)nn2cccnc12)c1cc2cccc(C#Cc3cnn(C)c3)c2c(=O)n1-c1ccccc1 [IPI-549, reference compound] |  |  |  | 6.4 µM (≈ 3.38 µg/mL)
